The text below walks through data of US20260193173A1, “AMINO ACID-BENZOIC ACID OLIGOMERS AND METHODS OF USE THEREOF FOR TREATING CANCER” (Board of Regents, The University of Texas System, priority 2022, published 2026).

In test [1] the target is Bcl-2 (Homo sapiens, UniProt P10415). In words: Bcl-2 protein binding, fluorescence polarization assay. From the text:
IC50 values were in the submicromolar range as determined by fluorescence polarization assay.

The test system of test [2] is DU145 prostate cancer cells. The test is described as follows: MTT assay, growth inhibition of prostate cancer cell line DU145. In kind it is cell-based. As to conditions: Homo sapiens, DU-145, incubated with DU145 cells for 72 hours. On the procedure: FIGS. 3A-3C show % inhibition (determined by MTT assay) of disclosed compounds on prostate cancer cell line DU145. Compounds were incubated with DU145 cells for 72 hours, showing strong cell growth inhibition with IC50 of 0.15-0.7 μM.

Molecules are shown by their SMILES.

Sequence of Bcl-2 (P10415 whole entry): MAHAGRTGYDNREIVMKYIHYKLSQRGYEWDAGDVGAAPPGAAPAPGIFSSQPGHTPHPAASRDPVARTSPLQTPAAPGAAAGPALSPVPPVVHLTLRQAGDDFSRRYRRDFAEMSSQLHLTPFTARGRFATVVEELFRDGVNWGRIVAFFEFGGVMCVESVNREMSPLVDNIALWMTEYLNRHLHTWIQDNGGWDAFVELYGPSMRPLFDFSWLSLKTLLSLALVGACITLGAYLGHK

Take `CC(C)COc1cc(C(=O)NC(CS)C(=O)Nc2ccc(C(=O)NC(Cc3ccccc3)C(=O)Nc3ccc(C(N)=O)cc3OCC(C)C)cc2OCC(C)C)ccc1N` (centres unmarked) [Compound B11]: the IC50 stood at 1080 nM in test [1] and 120 nM in test [2].
For the compound `CCC(C)C(NC(=O)c1ccc(N)c(OC)c1)C(=O)Nc1ccc(C(=O)NC(CCSC)C(=O)Nc2ccc(C(N)=O)cc2OCC(C)C)cc1OCC(C)C` (centres unmarked) [Compound B10], the IC50 in test [1] amounted to 1960 nM; in test [2], 779 nM.
Consider `COc1cc(C(=O)NC(Cc2ccc(O)cc2)C(=O)Nc2ccc(C(=O)NC(CCSC)C(=O)Nc3ccc(C(N)=O)cc3OCc3ccccc3)cc2OCC(C)C)ccc1N` (centres unmarked) [Compound B12], for which the IC50 in test [1] is 599 nM; in test [2] it was 702 nM.
Taken in the same sequence, the figures for `CCC(C)C(NC(=O)c1ccc(NC(=O)C(NC(=O)c2ccc(N)c(OC)c2)C(C)CC)c(OCC(C)C)c1)C(=O)Nc1ccc(C(N)=O)cc1OCc1ccccc1` (centres unmarked) [Compound B9] were 1540 nM and 300 nM.
